Data set [1] in a line: Estimated ionization constant(pKa). Format: physicochemical.
For data set [2], the target named is T1, Adenosine A2 receptor (UniProt P29275+P29274). As to conditions: Canis lupus familiaris.
Description: Molar potency ratio (MPR) against adenosine A2 receptor of canine coronary artery
Data set [3] in a line: Index of hydrophobicity (k'). In kind it is ADME.
Data set [4] has as its target T1, Adenosine A2 receptor. Description: Acidic dissociation constant(pKa) against A2 adenosine receptor of coronary artery. In kind it is protein assay. The following applies: Canis lupus familiaris.
The target in data set [5] is T1, Adenosine A2 receptor. Description: Molar potency ratio (MPR) against A2 adenosine receptor of coronary artery. In kind it is functional. As to conditions: Canis lupus familiaris.
Data set [6] concerns the target T1, Adenosine A2 receptor. Nature of the data set: Maximum increase in coronary flow, percent of control, and nucleoside concentration in coronary plasma at 17 uM. As to conditions: Canis lupus familiaris. Format: functional.

As to `COc1ccccc1CCNc1ncnc2c1ncn2C1O[C@H](CO)[C@@H](O)[C@H]1O` (stereo partly drawn), the pKa in data set [1] is 3.56. In data set [2], this compound registered an MPR of 1.2. Also, the “k'” value in data set [3] is 2.57.

`COc1ccccc1CNc1ncnc2c1ncn2[C@@H]1O[C@H](CO)[C@@H](O)[C@H]1O` came in with a pka in data set [4] of 3.3. Also, the MPR in data set [5] was 0.7. Besides, the “k'” value in data set [3] amounted to 2.31.

With `Cc1cccc(C)c1Nc1ncnc2c1ncn2C1O[C@H](CO)[C@@H](O)[C@H]1O` (stereo partly drawn), in data set [6], the Activity was 22%. For the same compound, in data set [3], the “k'” value turned out to be 1.52.

As usually defined, the pKa is the negative logarithm of the acid dissociation constant.
